# Laboratory results published in ChEMBL document CHEMBL1201862, “PubChem BioAssay data set” (2004).
#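 Growth conditions: 96-well plates. Treatment: test compound, 48 hours, 5 concentrations. Analysis: linear interpolation between bracketing concentrations; unreached endpoints set to highest concentration. The concentration for 50% growth inhibition is given as GI50.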 The source made the active and inactive calls. Rule as the data show it: active = GI50 up to about 1.1 µM and inactive = higher.
# What was measured:
# Assay in all cases: growth of human tumour cells (NCI), 48 h
# HOP-62 = system: HOP-62
# CCRF-CEM = system: CCRF-CEM
# SF-539 = system: SF-539
# MDA-N = system: MDA-N
# SK-MEL-2 = system: SK-MEL-2
# SK-MEL-28 = system: SK-MEL-28
# HOP-92 = system: HOP-92
# SNB-19 = system: SNB-19
# K562 = system: K562
# SW-620 = system: SW-620
# SK-OV-3 = system: SK-OV-3
# ACHN = system: ACHN
# OVCAR-8 = system: OVCAR-8
# EKVX = system: EKVX
# UO-31 = system: UO-31
# RPMI-8226 = system: RPMI-8226
# HCC 2998 = system: HCC 2998
# OVCAR-4 = system: OVCAR-4
# T47D = system: T47D
# SNB-75 = system: SNB-75
# OVCAR-5 = system: OVCAR-5
# Hs-578T = system: Hs-578T
# CAKI-1 = system: CAKI-1
# KM12 = system: KM12
# MOLT-4 = system: MOLT-4
# SN12C = system: SN12C
# SK-MEL-5 = system: SK-MEL-5
# M14 = system: M14
# PC-3 = system: PC-3
# SR = system: SR
# SF-268 = system: SF-268
# 786-0 = system: 786-0
# LOX IMVI = system: LOX IMVI
# NCI-H460 = system: NCI-H460
# SF-295 = system: SF-295
# OVCAR-3 = system: OVCAR-3
# NCI/ADR-RES = system: NCI/ADR-RES
# RXF 393 = system: RXF 393
# TK-10 = system: TK-10
# MDA-MB-435 = system: MDA-MB-435
# BT-549 = system: BT-549
# UACC-257 = system: UACC-257
# U-251 = system: U-251
# HT-29 = system: HT-29
# NCI-H226 = system: NCI-H226
# IGROV-1 = system: IGROV-1
# HCT-15 = system: HCT-15
# NCI-H23 = system: NCI-H23
# A498 = system: A498
# MCF7 = system: MCF7
# COLO 205 = system: COLO 205
# MDA-MB-231 = system: MDA-MB-231
# DU-145 = system: DU-145
# HCT-116 = system: HCT-116
# NCI-H522 = system: NCI-H522
# UACC-62 = system: UACC-62
# HL-60 = system: HL-60
# Malme-3M = system: Malme-3M
# A549 = system: A549
structure (smiles),measurement,setting,value
CSc1nnc(SCc2nn3c(=O)cc(C)nc3s2)s1,GI50,HOP-62,> 100 µM (inactive)
same,GI50,CCRF-CEM,> 100 µM (inactive)
same,GI50,SF-539,> 100 µM (inactive)
same,GI50,MDA-N,> 100 µM (inactive)
same,GI50,SK-MEL-2,> 100 µM (inactive)
same,GI50,SK-MEL-28,> 100 µM (inactive)
same,GI50,HOP-92,> 100 µM (inactive)
same,GI50,SNB-19,> 100 µM (inactive)
same,GI50,K562,> 100 µM (inactive)
same,GI50,SW-620,> 100 µM (inactive)
same,GI50,SK-OV-3,> 100 µM (inactive)
same,GI50,ACHN,> 100 µM (inactive)
same,GI50,OVCAR-8,> 100 µM (inactive)
same,GI50,EKVX,> 100 µM (inactive)
same,GI50,UO-31,> 100 µM (inactive)
same,GI50,RPMI-8226,> 100 µM (inactive)
same,GI50,HCC 2998,> 100 µM (inactive)
same,GI50,OVCAR-4,24.4 µM (inactive)
same,GI50,T47D,> 100 µM (inactive)
same,GI50,SNB-75,> 100 µM (inactive)
same,GI50,OVCAR-5,> 100 µM (inactive)
same,GI50,Hs-578T,> 100 µM (inactive)
same,GI50,CAKI-1,> 100 µM (inactive)
same,GI50,KM12,> 100 µM (inactive)
same,GI50,MOLT-4,> 100 µM (inactive)
same,GI50,SN12C,> 100 µM (inactive)
same,GI50,SK-MEL-5,> 100 µM (inactive)
same,GI50,M14,> 100 µM (inactive)
same,GI50,PC-3,> 100 µM (inactive)
same,GI50,SR,> 100 µM (inactive)
same,GI50,SF-268,> 100 µM (inactive)
same,GI50,786-0,> 100 µM (inactive)
same,GI50,LOX IMVI,> 100 µM (inactive)
same,GI50,NCI-H460,> 100 µM (inactive)
same,GI50,SF-295,> 100 µM (inactive)
same,GI50,OVCAR-3,> 100 µM (inactive)
same,GI50,NCI/ADR-RES,> 100 µM (inactive)
same,GI50,RXF 393,66.8 µM (inactive)
same,GI50,TK-10,> 100 µM (inactive)
same,GI50,MDA-MB-435,> 100 µM (inactive)
same,GI50,BT-549,> 100 µM (inactive)
same,GI50,UACC-257,> 100 µM (inactive)
same,GI50,U-251,> 100 µM (inactive)
same,GI50,HT-29,> 100 µM (inactive)
same,GI50,NCI-H226,> 100 µM (inactive)
same,GI50,IGROV-1,> 100 µM (inactive)
same,GI50,HCT-15,> 100 µM
same,GI50,NCI-H23,> 100 µM (inactive)
same,GI50,A498,> 100 µM (inactive)
same,GI50,MCF7,> 100 µM (inactive)
same,GI50,COLO 205,> 100 µM (inactive)
same,GI50,MDA-MB-231,> 100 µM (inactive)
same,GI50,DU-145,> 100 µM (inactive)
same,GI50,HCT-116,> 100 µM (inactive)
same,GI50,NCI-H522,> 100 µM (inactive)
same,GI50,UACC-62,> 100 µM (inactive)
same,GI50,HL-60,> 100 µM (inactive)
same,GI50,Malme-3M,> 100 µM (inactive)
same,GI50,A549,> 100 µM (inactive)
